The source of these data is patent publication US20230002359A1, “PESTICIDALLY ACTIVE FUSED BICYCLIC HETEROAROMATIC COMPOUNDS” (priority 2019, published 2023).

Series [1] relates to Plutella xylostella (Diamond Back Moth). Kind of series: Example B4: Plutella xylostella (diamond back moth), artificial diet, eggs, 24-well. The class given is in vivo. Particulars: 192 h, application rate of 200 ppm, 8 days after infestation, eggs, read-out: control in at least one of the two categories (mortality or growth inhibition). The protocol:
24-well microtiter plates with artificial diet were treated with aqueous test solutions prepared from 10′000 ppm DMSO stock solutions by pipetting. After drying, Plutella eggs were pipetted through a plastic stencil onto a gel blotting paper and the plate was closed with it. The samples were assessed for mortality and growth inhibition in comparison to untreated samples 8 days after infestation.

The test system of series [2] is Myzus persicae (Green Peach Aphid). Kind of series: Example B5: Myzus persicae (green peach aphid) feeding/contact activity, sunflower leaf discs. It is filed as in vivo. The settings on record: foliar, 144 h, application rate of 200 ppm, 6 days after infestation. Here is the method: Sunflower leaf discs were placed onto agar in a 24-well microtiter plate and sprayed with aqueous test solutions prepared from 10′000 ppm DMSO stock solutions. After drying, the leaf discs were infested with an aphid population of mixed ages. The samples were assessed for mortality 6 days after infestation.

For series [3] the test system is unchanged. The series is described as follows: Example B6: Myzus persicae (green peach aphid) intrinsic activity, sucrose solution. The class given is in vivo. The settings on record: 120 h, test rate of 12 ppm, 5 days after infestation, intrinsic activity, read-out: mortality. Put shortly: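 Mortality was read 5 days after infestation. Aphids on pea seedlings fed through a stretched Parafilm membrane on inverted 24-well plates containing sucrose solution mixed with test compound, which was diluted from 10′000 ppm DMSO stock.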

In series [4] the test system is Spodoptera littoralis (Egyptian Cotton Leaf Worm). The series is described as follows: Example B7: Spodoptera littoralis (Egyptian cotton leaf worm), cotton leaf discs sprayed, L1 larvae. The class given is in vivo. The settings on record: foliar, 72 h, application rate of 200 ppm, 3 days after infestation, L1 larvae, read-out: control in at least one of the three categories (mortality, anti-feedant effect, or growth inhibition). In a few lines:
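Spray application onto agar-supported cotton leaf discs used aqueous solutions derived from 10′000 ppm DMSO stocks. Once dry, discs were infested with five L1 larvae and evaluated after 3 days for mortality, anti-feeding and growth inhibition relative to untreated controls.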

Series [5] has as its system Chilo suppressalis (Striped Rice Stemborer). Kind of series: Example B3: Chilo suppressalis (striped rice stemborer), artificial diet, L2 larvae. It is filed as in vivo. The settings on record: 144 h, application rate of 200 ppm, 6 days after infestation, L2 larvae, read-out: control in at least one of the three categories (mortality, anti-feedant effect, or growth inhibition). Put shortly:
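Scoring covers mortality, anti-feedant effect and growth inhibition at 6 days post-infestation, relative to untreated diet, with activity defined as at least one category above untreated. Test solutions were aqueous, made from 10'000 ppm DMSO stocks, and applied to artificial diet before drying and infestation with L2 larvae.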

For series [6], the system named is Euschistus heros (Neotropical Brown Stink Bug). Kind of series: Example B2: Euschistus heros (neotropical brown stink bug), soybean leaves sprayed, N2 nymphs. It is filed as in vivo. The settings on record: 120 h, application rate of 200 ppm, 5 days after infestation, N2 nymphs, read-out: control in at least one of the two categories (mortality or growth inhibition). The protocol: Soybean leaves on agar in 24-well microtiter plates were sprayed with aqueous test solutions prepared from 10′000 ppm DMSO stock solutions. After drying the leaves were infested with N2 nymphs. The samples were assessed for mortality and growth inhibition in comparison to untreated samples 5 days after infestation.

The subject of series [7] is Diabrotica Balteata (Corn Root Worm). The series is described as follows: Example B1: Diabrotica balteata (corn root worm), maize sprouts sprayed, L2 larvae. The class given is in vivo. Particulars: 96 h, application rate of 200 ppm, 4 days after infestation, L2 larvae, read-out: control in at least one of the two categories (mortality or growth inhibition). Put shortly: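 Larvae at L2 stage, 6 to 10 per well, feed on dried, spray-treated maize sprouts set on agar. Evaluation after 4 days compares mortality and growth inhibition with untreated samples.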

Structures are written as SMILES.

The melting point is the temperature, or range, at which the solid turns liquid. On to `C[C@@H](c1ncnn1-c1ccc(-c2nccs2)cn1)N(C)c1ncnc2c(C(F)(F)F)cc(Cl)cc12`, for which the melting point was in the range of 142 to 144 °C.

`CC(c1ncnn1-c1ccc(OC(F)F)cn1)N(C)c1ncnc2c(Br)cc(C(F)(F)F)cc12` (stereo not drawn) had a melting point of 75 to 77 °C.

`CC(c1nccnc1-c1ccc(C#N)cn1)N(CC1CC1)c1ncnc2c(C(F)(F)F)cc(Br)cc12` (stereo not drawn) registered a melting point of 251 to 253 °C.

Consider `CC(c1nccnc1-c1ccc(C#N)cn1)N(CC1CC1)c1ncnc2c(C(F)(F)F)cc(Cl)cc12` (stereo not drawn), for which the melting point lay within 254 to 256 °C.

As usually defined, the mortality is the share of the test organisms that died. With `C[C@H](Nc1ncnc2c(C(F)(F)F)cc(C(F)(F)F)cc12)c1ncnn1-c1ncccn1` [P.1, N-[(1S)-1-(2-pyrimidin-2-yl-1,2,4-triazol-3-yl)ethyl]-6,8-bis(trifluoromethyl)quina-zolin-4-amine], the percent control (mortality or growth inhibition) at 200 ppm in series [1], in series [6] and in series [7] was not below 80% each time. In series [2], this compound registered a mortality at 200 ppm not below 80%. The mortality at 12 ppm in series [3] was not below 80%. For the same compound, the percent control (mortality, anti-feedant effect or growth inhibition) at 200 ppm in series [4] and in series [5] was not below 80% in each case.

In the case of `CC(c1ncnn1-c1ccc(C#N)cn1)N(C)c1ncnc2c(C(F)(F)F)cc(C(F)(F)F)cc12` (stereo not drawn) [P.28, 6-[5-[1-[[6,8-bis(trifluoromethyl)quina-zolin-4-yl]-methyl-amino]ethyl]-1,2,4-triazol-1-yl]pyridine-3-carbonitrile], the percent control (mortality or growth inhibition) at 200 ppm in series [1], in series [6] and in series [7] was not below 80% each time. In addition, in series [2], the mortality at 200 ppm is not below 80%. The mortality at 12 ppm in series [3] is not below 80%. Further, the percent control (mortality, anti-feedant effect or growth inhibition) at 200 ppm in series [4] and in series [5] was not below 80% each time.

As for `CC(c1ncnn1-c1ncccn1)N(C)c1ncnc2c(OC(F)F)cc(Br)cc12` (stereo not drawn) [P.245, 6-bromo-8-(difluoromethoxy)-N-methyl-N-[1-(2-pyrimidin-2-yl-1,2,4-triazol-3-yl)ethyl]quinazolin-4-amine], the percent control (mortality or growth inhibition) at 200 ppm in series [1], in series [6] and in series [7] was not below 80% each time. The same compound returned a mortality at 200 ppm in series [2] not below 80%. In series [3], the mortality at 12 ppm was not below 80%. Moreover, the percent control (mortality, anti-feedant effect or growth inhibition) at 200 ppm in series [4] and in series [5] was not below 80% each time.

Turning to `C[C@@H](c1ncnn1-c1ccc(C#N)cn1)N(C)c1ncnc2c(C(F)(F)F)cc(C(F)(F)F)cc12` [P.54, 6-[5-[(1S)-1-[[6,8-bis(trifluoromethyl)quina-zolin-4-yl]-methyl-amino]ethyl]-1,2,4-triazol-1-yl]pyridine-3-carbonitrile], the percent control (mortality or growth inhibition) at 200 ppm in series [1], in series [6] and in series [7] was not below 80% in each case. For the same compound, the mortality at 200 ppm in series [2] was not below 80%. Further, the mortality at 12 ppm in series [3] is not below 80%. For the same compound, the percent control (mortality, anti-feedant effect or growth inhibition) at 200 ppm in series [4] and in series [5] was not below 80% each time.

Consider `CCN(c1ncnc2c(C(F)(F)F)cc(C(F)(F)F)cc12)C(C)c1ncnn1-c1ccc(C#N)cn1` (stereo not drawn) [P.6, 6-[5-[1-[[6,8-bis(trifluoromethyl)quina-zolin-4-yl]-ethyl-amino]ethyl]-1,2,4-triazol-1-yl]pyridine-3-carbonitrile], for which the percent control (mortality or growth inhibition) at 200 ppm in series [1], in series [6] and in series [7] was not below 80% in each case. Also, the mortality at 200 ppm in series [2] is not below 80%. Besides, the mortality at 12 ppm in series [3] was not below 80%. Also, the percent control (mortality, anti-feedant effect or growth inhibition) at 200 ppm in series [4] and in series [5] was not below 80% throughout.

For `C[C@@H](c1ncnn1-c1ncccn1)N(C)c1ncnc2c(C(F)(F)F)cc(C(F)(F)F)cc12` [P.26, N-methyl-N-[(1S)-1-(2-pyrimidin-2-yl-1,2,4-triazol-3-yl)ethyl]-6,8-bis(trifluoromethyl)quina-zolin-4-amine], the percent control (mortality or growth inhibition) at 200 ppm in series [1], in series [6] and in series [7] was not below 80% in each case. The mortality at 200 ppm in series [2] is not below 80%. Also, the mortality at 12 ppm in series [3] was not below 80%. The percent control (mortality, anti-feedant effect or growth inhibition) at 200 ppm in series [4] and in series [5] was not below 80% in each case.

With `CC(c1ncnn1-c1ncccn1)N(C)c1ncnc2c(Br)cc(Cl)cc12` (stereo not drawn) [P.172, 8-bromo-6-chloro-N-methyl-N-[1-(2-pyrimidin-2-yl-1,2,4-triazol-3-yl)ethyl]quinazolin-4-amine], the percent control (mortality or growth inhibition) at 200 ppm in series [1], in series [6] and in series [7] was not below 80% throughout. This compound yielded a mortality at 200 ppm in series [2] not below 80%. Also, the mortality at 12 ppm in series [3] is not below 80%. Further, the percent control (mortality, anti-feedant effect or growth inhibition) at 200 ppm in series [4] and in series [5] was not below 80% each time.

In the case of `C[C@@H](c1ncnn1-c1ncccn1)N(C)c1ncnc2c(I)cc(C(F)(F)F)cc12` [P.219, 8-iodo-N-methyl-N-[(1S)-1-(2-pyrimidin-2-yl-1,2,4-triazol-3-yl)ethyl]-6-(trifluoromethyl)quinazolin-4-amine], the percent control (mortality or growth inhibition) at 200 ppm in series [1], in series [6] and in series [7] was not below 80% throughout. The compound also yielded a mortality at 200 ppm in series [2] not below 80%. In series [3], the mortality at 12 ppm is not below 80%. The percent control (mortality, anti-feedant effect or growth inhibition) at 200 ppm in series [4] and in series [5] was not below 80% each time.

As to `CC(Nc1ncnc2c(OC(F)(F)F)cc(Br)cc12)c1ncnn1-c1ncccn1` (stereo not drawn) [P.248, 6-bromo-N-[1-(2-pyrimidin-2-yl-1,2,4-triazol-3-yl)ethyl]-8-(trifluoromethoxy)quina-zolin-4-amine], the percent control (mortality or growth inhibition) at 200 ppm in series [1], in series [6] and in series [7] was not below 80% throughout. Also, the mortality at 200 ppm in series [2] is not below 80%. Further, the mortality at 12 ppm in series [3] is not below 80%. Also, the percent control (mortality, anti-feedant effect or growth inhibition) at 200 ppm in series [4] and in series [5] was not below 80% throughout.

In the case of `C[C@@H](c1ncnn1-c1ccc(C#N)cn1)N(C)c1ncnc2c(C(F)(F)F)cc(Cl)cc12` [P.21, 6-[5-[(1S)-1-[[6-chloro-8-(trifluoromethyl)quinazolin-4-yl]-methyl-amino]ethyl]-1,2,4-triazol-1-yl]pyridine-3-carbonitrile], the percent control (mortality or growth inhibition) at 200 ppm in series [1], in series [6] and in series [7] was not below 80% throughout. The same compound displayed a mortality at 200 ppm in series [2] not below 80%. In series [3], the mortality at 12 ppm was not below 80%. The percent control (mortality, anti-feedant effect or growth inhibition) at 200 ppm in series [4] and in series [5] was not below 80% in each case.

As to `CCN(c1ncnc2c(C(F)(F)F)cc(Cl)cc12)[C@@H](C)c1ncnn1-c1ccc(C#N)cn1` [P.128, 6-[5-[(1S)-1-[[6-chloro-8-(trifluoromethyl)quinazolin-4-yl]-ethyl-amino]ethyl]-1,2,4-triazol-1-yl]pyridine-3-carbonitrile], the percent control (mortality or growth inhibition) at 200 ppm in series [1], in series [6] and in series [7] was not below 80% throughout. Moreover, in series [2], the mortality at 200 ppm was not below 80%. In addition, the mortality at 12 ppm in series [3] was not below 80%. Besides, the percent control (mortality, anti-feedant effect or growth inhibition) at 200 ppm in series [4] and in series [5] was not below 80% each time.
